Assay results as given in ChEMBL document CHEMBL1201862, “PubChem BioAssay data set” (2004).
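Test compounds were applied to cells in 96-well plates for 48 hours at 5 doses. The concentration for 50% growth inhibition is given as GI50.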 Active and inactive are the calls of the source. Rule as the data show it: active = GI50 up to about 1.1 µM and inactive = higher.

Key:
Test in all cases: NCI anticancer screen, dose series, 48 h
786-0 = test system: 786-0
A549 = test system: A549
CCRF-CEM = test system: CCRF-CEM
HL-60 = test system: HL-60
K562 = test system: K562
LOX IMVI = test system: LOX IMVI
MOLT-4 = test system: MOLT-4
Malme-3M = test system: Malme-3M
NCI-H460 = test system: NCI-H460
OVCAR-4 = test system: OVCAR-4
OVCAR-8 = test system: OVCAR-8
SF-268 = test system: SF-268
SF-295 = test system: SF-295
SK-MEL-28 = test system: SK-MEL-28
SW-620 = test system: SW-620
TK-10 = test system: TK-10
UACC-257 = test system: UACC-257
SK-MEL-5 = test system: SK-MEL-5
SR = test system: SR

Measured: GI50

COC(=O)C1=C(C)N(NC(N)=O)C2(N)N(NC(N)=O)C(C)=C(C(=O)OC)C12C#N (stereo unspecified)
inactive: 786-0 > 100 µM | A549 > 100 µM | CCRF-CEM > 100 µM | HL-60 > 100 µM | K562 > 100 µM | LOX IMVI > 100 µM | MOLT-4 > 100 µM | Malme-3M > 100 µM | NCI-H460 > 100 µM | OVCAR-4 > 100 µM | OVCAR-8 > 100 µM | SF-268 > 100 µM | SF-295 > 100 µM | SK-MEL-28 > 100 µM | SW-620 > 100 µM | TK-10 > 100 µM | UACC-257 > 100 µM

O=C1C2Cc3ccccc3CN2C(=O)N1CN1CCN(CN2C(=O)C3Cc4ccccc4CN3C2=O)CC1 (stereo unspecified)
inactive: 786-0 > 100 µM | A549 > 100 µM | CCRF-CEM > 100 µM | HL-60 > 100 µM | K562 > 100 µM | LOX IMVI > 100 µM | MOLT-4 > 100 µM | Malme-3M > 100 µM | NCI-H460 > 100 µM | OVCAR-8 > 100 µM | SF-268 > 100 µM | SF-295 > 100 µM | SK-MEL-28 > 100 µM | SK-MEL-5 > 100 µM | SW-620 > 100 µM | TK-10 > 100 µM | UACC-257 > 100 µM

O=C1C=C(Nc2ccccc2C(=O)CC(=O)C(=O)Nc2ccc(Cl)c(Cl)c2)c2ccccc2C1=O
inactive: 786-0 35.3 µM | A549 53.1 µM | CCRF-CEM 4.76 µM | K562 12.2 µM | MOLT-4 3.72 µM | Malme-3M 12.6 µM | NCI-H460 36.2 µM | OVCAR-4 59.4 µM | OVCAR-8 26.7 µM | SF-268 19.9 µM | SF-295 59 µM | SK-MEL-28 10.6 µM | SK-MEL-5 7.78 µM | SR 5 µM | UACC-257 20.9 µM

CCOC(=O)C1=C(C)N(NC(=O)c2ccccc2)C2(O)CCCC12C(=O)OCC (stereo unspecified)
inactive: 786-0 > 100 µM | A549 > 100 µM | HL-60 > 100 µM | K562 > 100 µM | LOX IMVI > 100 µM | MOLT-4 > 100 µM | Malme-3M > 100 µM | NCI-H460 > 100 µM | OVCAR-4 > 100 µM | OVCAR-8 > 100 µM | SF-268 > 100 µM | SF-295 > 100 µM | SK-MEL-28 > 100 µM | SK-MEL-5 > 100 µM | SR 73.3 µM | SW-620 > 100 µM | UACC-257 > 100 µM

C1CCN(C2OC3C(COC3N3CCCCC3)OC2OC2CCO[C@@H]2N2CCCCC2)CC1 (stereo partly specified)
inactive: 786-0 34.7 µM | A549 51.3 µM | CCRF-CEM 5.11 µM | HL-60 8.47 µM | K562 28.4 µM | LOX IMVI 75 µM | MOLT-4 15.8 µM | Malme-3M 21.1 µM | NCI-H460 > 100 µM | OVCAR-4 34 µM | OVCAR-8 17.5 µM | SF-268 53.7 µM | SF-295 47.5 µM | SK-MEL-28 57.9 µM | SK-MEL-5 25.2 µM | SW-620 81.3 µM | TK-10 80.9 µM | UACC-257 20.8 µM

CN(C)C(=C1C(Br)=C(Br)C(Br)=C1Br)N(C)C
inactive: 786-0 > 100 µM | A549 > 100 µM | CCRF-CEM 26.3 µM | HL-60 46.3 µM | K562 30.4 µM | LOX IMVI 21.5 µM | MOLT-4 > 100 µM | Malme-3M > 100 µM | NCI-H460 > 100 µM | OVCAR-4 > 100 µM | OVCAR-8 > 100 µM | SF-268 > 100 µM | SF-295 > 100 µM | SK-MEL-28 > 100 µM | SK-MEL-5 > 100 µM | SW-620 83.8 µM | TK-10 > 100 µM | UACC-257 > 100 µM

COC1=CC23C=CC1[C@@H](c1ccccc1)C2=C(C)C(=O)N3C(=O)NC1CCCCC1 (stereo partly specified)
inactive: 786-0 15.5 µM | A549 24.7 µM | CCRF-CEM 25.7 µM | HL-60 21 µM | K562 28.2 µM | LOX IMVI 17 µM | MOLT-4 18 µM | NCI-H460 20.1 µM | OVCAR-8 25.3 µM | SF-268 15.8 µM | SF-295 22.4 µM | SK-MEL-28 18.5 µM | SK-MEL-5 14.9 µM | SR 20.2 µM | SW-620 19.5 µM | TK-10 26.7 µM | UACC-257 26.6 µM

CON1C(=O)C2(CCCCC2)C(=O)C12C=CC(C)CC2 (stereo unspecified)
inactive: 786-0 > 100 µM | A549 > 100 µM | CCRF-CEM > 100 µM | HL-60 49.5 µM | K562 85.5 µM | LOX IMVI > 100 µM | MOLT-4 78.9 µM | Malme-3M > 100 µM | NCI-H460 > 100 µM | OVCAR-8 > 100 µM | SF-268 > 100 µM | SF-295 > 100 µM | SK-MEL-28 > 100 µM | SK-MEL-5 38 µM | SW-620 > 100 µM | TK-10 > 100 µM | UACC-257 69.8 µM

COC(=O)C1=C(c2ccc(OC)c(OC)c2)OC(c2cc(OC)c(OC)c(OC)c2)C1 (stereo unspecified)
inactive: 786-0 20 µM | A549 > 100 µM | CCRF-CEM > 100 µM | K562 > 100 µM | LOX IMVI 99.5 µM | Malme-3M 42.4 µM | NCI-H460 > 100 µM | OVCAR-4 16.1 µM | OVCAR-8 25.9 µM | SF-268 27.9 µM | SF-295 23 µM | SK-MEL-28 > 100 µM | SK-MEL-5 29.3 µM | SW-620 41.6 µM | TK-10 39.2 µM | UACC-257 > 100 µM

CC1(C)CCc2cc3c(cc2O1)OC(C)(C)C1c2c(ccc4c2CCC(C)(C)O4)OC31 (stereo unspecified)
inactive: 786-0 > 100 µM | A549 > 100 µM | CCRF-CEM > 100 µM | HL-60 51.1 µM | K562 > 100 µM | LOX IMVI > 100 µM | MOLT-4 > 100 µM | NCI-H460 > 100 µM | OVCAR-4 > 100 µM | OVCAR-8 > 100 µM | SF-268 > 100 µM | SF-295 > 100 µM | SK-MEL-5 > 100 µM | SR > 100 µM | SW-620 > 100 µM

Cc1ccc(NS(=O)(=O)c2cc(C(C)(C)C)ccc2OCCOCCOCCOc2ccc(C(C)(C)C)cc2S(=O)(=O)Nc2ccc(C)cc2)cc1
inactive: 786-0 > 100 µM | A549 > 100 µM | CCRF-CEM > 100 µM | HL-60 > 100 µM | K562 > 100 µM | LOX IMVI > 100 µM | MOLT-4 > 100 µM | Malme-3M > 100 µM | NCI-H460 > 100 µM | OVCAR-4 > 100 µM | OVCAR-8 > 100 µM | SF-268 > 100 µM | SF-295 > 100 µM | SK-MEL-28 > 100 µM | SK-MEL-5 > 100 µM | SW-620 > 100 µM | TK-10 > 100 µM | UACC-257 > 100 µM

CCCCCCCCCCCC(=O)OCC1OC(n2cc(F)c(=O)[nH]c2=O)C(N)C(O)C1O (stereo unspecified)
inactive: 786-0 > 100 µM | A549 > 100 µM | CCRF-CEM 31.2 µM | HL-60 38.9 µM | K562 32.2 µM | MOLT-4 36.3 µM | Malme-3M > 100 µM | NCI-H460 78.9 µM | OVCAR-4 > 100 µM | OVCAR-8 73.5 µM | SF-268 > 100 µM | SF-295 > 100 µM | SK-MEL-28 > 100 µM | SK-MEL-5 > 100 µM | SR 81.7 µM | SW-620 > 100 µM | UACC-257 > 100 µM

Nc1ncnc2c1ncn2CC(O)CO (stereo unspecified)
inactive: 786-0 > 100 µM | A549 > 100 µM | CCRF-CEM > 100 µM | HL-60 > 100 µM | K562 > 100 µM | LOX IMVI > 100 µM | MOLT-4 > 100 µM | Malme-3M > 100 µM | NCI-H460 > 100 µM | OVCAR-4 > 100 µM | OVCAR-8 > 100 µM | SF-268 > 100 µM | SF-295 > 100 µM | SK-MEL-28 > 100 µM | SK-MEL-5 > 100 µM | SW-620 > 100 µM | TK-10 > 100 µM | UACC-257 > 100 µM

O=c1ccn(C2(CO)C=C(CO)C(O)C2O)c(=O)[nH]1 (stereo unspecified)
inactive: 786-0 > 25.7 µM | A549 > 25.7 µM | HL-60 > 25.7 µM | K562 > 25.7 µM | MOLT-4 > 25.7 µM | Malme-3M > 25.7 µM | NCI-H460 > 25.7 µM | OVCAR-4 > 25.7 µM | OVCAR-8 > 25.7 µM | SF-268 > 25.7 µM | SK-MEL-28 > 25.7 µM | SK-MEL-5 > 25.7 µM | SR > 25.7 µM | SW-620 > 25.7 µM | TK-10 > 25.7 µM | UACC-257 > 25.7 µM

C1=CC=C2NCCOCC/N=C3/C=CC=CC=C3NCCOCC/N=C\2C=C1
inactive: 786-0 > 100 µM | A549 63.7 µM | CCRF-CEM 40 µM | HL-60 22.4 µM | K562 31.4 µM | LOX IMVI 29 µM | MOLT-4 44.9 µM | Malme-3M 21.5 µM | NCI-H460 30.4 µM | OVCAR-4 59.2 µM | OVCAR-8 57.4 µM | SF-268 > 100 µM | SF-295 52 µM | SK-MEL-28 86.5 µM | SK-MEL-5 48.6 µM | SW-620 32.4 µM | TK-10 > 100 µM | UACC-257 20 µM

NC(=O)N/N=C(\C(=O)C(=O)Nc1ccc(Cl)c(C(F)(F)F)c1)c1nc2ccc(C(=O)c3ccccc3)cc2nc1O
inactive: 786-0 > 100 µM | A549 > 100 µM | CCRF-CEM 55.8 µM | K562 48.4 µM | MOLT-4 35.3 µM | Malme-3M > 100 µM | NCI-H460 > 100 µM | OVCAR-4 53.8 µM | OVCAR-8 88.9 µM | SF-268 70.3 µM | SF-295 > 100 µM | SK-MEL-28 > 100 µM | SK-MEL-5 44.3 µM | SR 45.7 µM | SW-620 > 100 µM | TK-10 > 100 µM | UACC-257 72.4 µM
